From patent US20140242093A1, “METHODS AND COMPOSITIONS FOR MODULATING THE INNATE IMMUNE RESPONSE AND/OR MYOGENESIS IN A MAMMALIAN SUBJECT” (FRED HUTCHINSON CANCER RESEARCH CENTER, priority 2011, published 2014)

How the values were obtained:
MaLR transcripts (THE1) = test: MaLR expression analysis by real-time PCR; format: cell-based, human; settings: RT-PCR, transduced muscle cells
Method: Real-time PCR was performed as described above. Water and minus RT controls were checked to ensure there was no amplification of these repetitive elements from residual or contaminating genomic DNA.

Human myoblasts = test: Expression array of the innate immune response to lentiviral infection versus uninfected cells; format: cell-based
Method: RNA was harvested from the lenti-viral infected cells and uninfected control cells at 24 hours after infection.

## DUX4-fl: full-length DUX4 protein (SEQ ID NO:110), expressed from lentiviral or pCS2 vectors or in vitro translated
MaLR transcripts (THE1)
  endogenous MaLR transcripts: induction of endogenous MaLR transcripts
Human myoblasts
  induction of viral RNA sensors LGP2 (DHX58), IFIH1 (MDA5), DDX58 (RIG-1): suppresses the induction of the three primary sensors of viral RNA
  number of the 341 genes induced within 50% of the level of induction by lenti-GFP: 24 genes
Human myoblasts; 317 out of 341
  share of lentivirus-induced genes whose induction is suppressed: 93%
Human myoblasts; expression array
  DEFB103A and DEFB103B transcripts: activated
Human myoblasts; gene CCL2 NM_002982.3, vs lenti-GFP, 24 hours after infection
  CCL2 expression ratio vs GFP (.fc): −2.68 log2 fold change
Human myoblasts; gene CCL2 NM_002982.3, vs uninfected, 24 hours after infection
  CCL2 expression ratio vs NoLenti (.fc): 0.01 log2 fold change
Human myoblasts; gene CCL5 NM_002985.2, vs lenti-GFP, 24 hours after infection
  CCL5 expression ratio vs GFP (.fc): −2.53 log2 fold change
Human myoblasts; gene CCL5 NM_002985.2, vs uninfected, 24 hours after infection
  CCL5 expression ratio vs NoLenti (.fc): 0.22 log2 fold change
Human myoblasts; gene CXCL1 NM_001511.1, vs lenti-GFP, 24 hours after infection
  CXCL1 expression ratio vs GFP (.fc): −3.52 log2 fold change
Human myoblasts; gene CXCL1 NM_001511.1, vs uninfected, 24 hours after infection
  CXCL1 expression ratio vs NoLenti (.fc): −0.04 log2 fold change
Human myoblasts; gene CXCL2 NM_002089.3, vs lenti-GFP, 24 hours after infection
  CXCL2 expression ratio vs GFP (.fc): −1.34 log2 fold change
Human myoblasts; gene CXCL2 NM_002089.3, vs uninfected, 24 hours after infection
  CXCL2 expression ratio vs NoLenti (.fc): −0.04 log2 fold change
Human myoblasts; gene CXCL5 NM_002994.3, vs lenti-GFP, 24 hours after infection
  CXCL5 expression ratio vs GFP (.fc): −2.47 log2 fold change
Human myoblasts; gene CXCL5 NM_002994.3, vs uninfected, 24 hours after infection
  CXCL5 expression ratio vs NoLenti (.fc): −0.37 log2 fold change
Human myoblasts; gene CXCL6 NM_002993.2, vs lenti-GFP, 24 hours after infection
  CXCL6 expression ratio vs GFP (.fc): −1.99 log2 fold change
Human myoblasts; gene CXCL6 NM_002993.2, vs uninfected, 24 hours after infection
  CXCL6 expression ratio vs NoLenti (.fc): −0.10 log2 fold change
Human myoblasts; gene DDX58 NM_014314.3, vs lenti-GFP, 24 hours after infection
  DDX58 expression ratio vs GFP (.fc): −2.47 log2 fold change
Human myoblasts; gene DDX58 NM_014314.3, vs uninfected, 24 hours after infection
  DDX58 expression ratio vs NoLenti (.fc): −0.18 log2 fold change
Human myoblasts; gene DHX58 NM_024119.2, vs lenti-GFP, 24 hours after infection
  DHX58 (LGP2) expression ratio vs GFP (.fc): −2.84 log2 fold change
Human myoblasts; gene DHX58 NM_024119.2, vs uninfected, 24 hours after infection
  DHX58 (LGP2) expression ratio vs NoLenti (.fc): −0.17 log2 fold change
Human myoblasts; gene IFI6 NM_022872.2, vs lenti-GFP, 24 hours after infection
  IFI6 expression ratio vs GFP (.fc): −4.24 log2 fold change
Human myoblasts; gene IFI6 NM_022872.2, vs uninfected, 24 hours after infection
  IFI6 expression ratio vs NoLenti (.fc): 0.82 log2 fold change
Human myoblasts; gene IFI16 NM_005531.1, vs lenti-GFP, 24 hours after infection
  IFI16 expression ratio vs GFP (.fc): −2.01 log2 fold change
Human myoblasts; gene IFI16 NM_005531.1, vs uninfected, 24 hours after infection
  IFI16 expression ratio vs NoLenti (.fc): −0.14 log2 fold change
Human myoblasts; gene IFI27 NM_005532.3, vs lenti-GFP, 24 hours after infection
  IFI27 expression ratio vs GFP (.fc): −6.53 log2 fold change
Human myoblasts; gene IFI27 NM_005532.3, vs uninfected, 24 hours after infection
  IFI27 expression ratio vs NoLenti (.fc): 0.92 log2 fold change
Human myoblasts; gene IFI35 NM_005533.2, vs lenti-GFP, 24 hours after infection
  IFI35 expression ratio vs GFP (.fc): −3.85 log2 fold change
Human myoblasts; gene IFI35 NM_005533.2, vs uninfected, 24 hours after infection
  IFI35 expression ratio vs NoLenti (.fc): −0.32 log2 fold change
Human myoblasts; gene IFI44L NM_006820.1, vs lenti-GFP, 24 hours after infection
  IFI44L expression ratio vs GFP (.fc): −5.12 log2 fold change
Human myoblasts; gene IFI44L NM_006820.1, vs uninfected, 24 hours after infection
  IFI44L expression ratio vs NoLenti (.fc): 0.74 log2 fold change
Human myoblasts; gene IFI44 NM_006417.3, vs lenti-GFP, 24 hours after infection
  IFI44 expression ratio vs GFP (.fc): −2.42 log2 fold change
Human myoblasts; gene IFI44 NM_006417.3, vs uninfected, 24 hours after infection
  IFI44 expression ratio vs NoLenti (.fc): 0.90 log2 fold change
Human myoblasts; gene IFIH1 NM_022168.2, vs lenti-GFP, 24 hours after infection
  IFIH1 (MDA5) expression ratio vs GFP (.fc): −3.70 log2 fold change
Human myoblasts; gene IFIH1 NM_022168.2, vs uninfected, 24 hours after infection
  IFIH1 (MDA5) expression ratio vs NoLenti (.fc): 0.25 log2 fold change
Human myoblasts; gene IFIT1 NM_001548.3, vs lenti-GFP, 24 hours after infection
  IFIT1 expression ratio vs GFP (.fc): −4.38 log2 fold change
Human myoblasts; gene IFIT1 NM_001548.3, vs uninfected, 24 hours after infection
  IFIT1 expression ratio vs NoLenti (.fc): 0.43 log2 fold change
Human myoblasts; gene IFIT3 NM_001549.2, vs lenti-GFP, 24 hours after infection
  IFIT3 expression ratio vs GFP (.fc): −3.86 log2 fold change
Human myoblasts; gene IFIT3 NM_001549.2, vs uninfected, 24 hours after infection
  IFIT3 expression ratio vs NoLenti (.fc): 0.04 log2 fold change
Human myoblasts; gene IFIT5 NM_012420.1, vs lenti-GFP, 24 hours after infection
  IFIT5 expression ratio vs GFP (.fc): −1.65 log2 fold change
Human myoblasts; gene IFIT5 NM_012420.1, vs uninfected, 24 hours after infection
  IFIT5 expression ratio vs NoLenti (.fc): −0.36 log2 fold change
Human myoblasts; gene IFITM1 NM_003641.3, vs lenti-GFP, 24 hours after infection
  IFITM1 expression ratio vs GFP (.fc): −6.12 log2 fold change
Human myoblasts; gene IFITM1 NM_003641.3, vs uninfected, 24 hours after infection
  IFITM1 expression ratio vs NoLenti (.fc): 0.73 log2 fold change
Human myoblasts; gene IFITM2 NM_006435.2, vs lenti-GFP, 24 hours after infection
  IFITM2 expression ratio vs GFP (.fc): −1.71 log2 fold change
Human myoblasts; gene IFITM2 NM_006435.2, vs uninfected, 24 hours after infection
  IFITM2 expression ratio vs NoLenti (.fc): −0.46 log2 fold change
Human myoblasts; gene IFITM3 NM_021034.2, vs lenti-GFP, 24 hours after infection
  IFITM3 expression ratio vs GFP (.fc): −1.95 log2 fold change
